This note sets out measurements from ChEMBL document CHEMBL3785084, “Rational modification of the lead molecule: Enhancement in the anticancer and dihydrofolate reductase inhibitory activity” (Bioorg Med Chem Lett, 2016).

By GI50 is commonly meant the concentration giving 50% growth inhibition. Higher therefore signals less potent growth inhibition. As a reminder, the TGI is the concentration giving total growth inhibition. Read a low TGI as greater sensitivity of the cells.

The nature of experiment [1]: Cytotoxicity against human NCI-ADR-RES cells after 48 hrs by sulforhodamine B assay. Format: functional. As to conditions: for CC50: read-out: LC50 (the source's name).
Another experiment concerns U-251. The experiment can be described thus: Cytotoxicity against human U251 cells assessed as cell growth at 10^-5 M after 48 hrs by sulforhodamine B assay. Format: functional. To be noted: U-251, 48 h, read-out: Activity. For orientation: In SRB staining, fixed cells bind dye roughly in proportion to their protein.
Experiment [2] in a line: Cytotoxicity against human COLO205 cells assessed as cell growth at 10^-5 M after 48 hrs by sulforhodamine B assay. Format: functional. To be noted: COLO 205, 48 h, read-out: Activity.
In the next experiment the test system is MDA-MB-231. The experiment in a line: cells. To be noted: Homo sapiens, MDA-MB-231, 48 h; for CC50: read-out: LC50.
Experiment [3] in a line: Cytotoxicity against human HOP62 cells assessed as cell growth at 10^-5 M after 48 hrs by sulforhodamine B assay. It is filed as functional. To be noted: HOP-62, 48 h, read-out: Activity.
A further experiment is described as follows: cells. As to conditions: Homo sapiens, MOLT-4, 48 h; for CC50: read-out: LC50.
The subject of the next experiment is K562. The experiment in a line: cells. To be noted: Homo sapiens, K562, 48 h; for CC50: read-out: LC50.
For experiment [4], the target named is Dihydrofolate reductase (Homo sapiens) (UniProt P00374). As to conditions: 20 to 30 uM.
The target is the same in experiment [5].
In another experiment the test system is SK-MEL-2. The experiment can be described thus: Cytotoxicity against human SK-MEL-2 cells after 48 hrs by sulforhodamine B assay. As to conditions: SK-MEL-2, 48 h. Format: functional.
A short description of experiment [6]: Cytotoxicity against human BT549 cells after 48 hrs by sulforhodamine B assay. It is filed as functional. As to conditions: BT-549, 48 h.

Activity calls are given as the source filed them. The calls are words filed in the database; no cut-off is given here. Some results are limits rather than exact numbers.

Consider `COc1cc(/C=C2\C(=O)Nc3ccccc32)cc(OC)c1O`, for which the GI50 was determined as 2.5 µM in [1], 3.1 µM in the experiment on MDA-MB-231, 3.8 µM in “cells” and 2.1 µM in the experiment on K562. For the same compound, the TGI in [1] was 7.5 µM; in the experiment on MDA-MB-231, 20.8 µM; in the experiment “cells” it was 93.3 µM; in the experiment with K562, above 100 µM. In addition, the CC50 (in [1]; in the experiment on MDA-MB-231; in “cells”; with K562) was above 100 µM in each case. Further, the growth at 10 µM is 47% in the experiment with U-251, 112% in [2] and 64.3% in experiment [3].
Turning to `O=C1Nc2ccccc2/C1=C/c1cn(CC(O)Cn2cc(/C=C3\C(=O)Nc4ccccc43)c3ccccc32)c2ccccc12` (centres undefined), the GI50 in experiment [1] came to 12 µM; with MDA-MB-231, 1.2 µM; in “cells”, 2.5 µM; in the experiment on K562, 1.2 µM; with SK-MEL-2 it was 1.7 µM; in experiment [6] it was 1.7 µM. Also, the TGI came out at 54.5 µM in experiment [1]; 2.7 µM with MDA-MB-231; 7.4 µM in “cells”; 3.5 µM in the experiment on K562; 3.4 µM in the experiment on SK-MEL-2; 3.6 µM in [6]. Besides, the CC50 in [1] was above 100 µM; in the experiment with MDA-MB-231, 5.7 µM; in the experiment “cells”, above 100 µM; in the experiment on K562, above 100 µM; with SK-MEL-2 (read-out: LC50 (the source's name)), 6.9 µM. For the same compound, the inhibition entry in [4] was “Active”. In experiment [5], this compound showed a Ka of 1.38 ×10⁵ /M.
